# Molecular target: T1, human wild-type (WT)-pendrin (Homo sapiens, UniProt O43511)
# T1 construct: expressed in transfected cells
# T1 sequence (O43511 1-780): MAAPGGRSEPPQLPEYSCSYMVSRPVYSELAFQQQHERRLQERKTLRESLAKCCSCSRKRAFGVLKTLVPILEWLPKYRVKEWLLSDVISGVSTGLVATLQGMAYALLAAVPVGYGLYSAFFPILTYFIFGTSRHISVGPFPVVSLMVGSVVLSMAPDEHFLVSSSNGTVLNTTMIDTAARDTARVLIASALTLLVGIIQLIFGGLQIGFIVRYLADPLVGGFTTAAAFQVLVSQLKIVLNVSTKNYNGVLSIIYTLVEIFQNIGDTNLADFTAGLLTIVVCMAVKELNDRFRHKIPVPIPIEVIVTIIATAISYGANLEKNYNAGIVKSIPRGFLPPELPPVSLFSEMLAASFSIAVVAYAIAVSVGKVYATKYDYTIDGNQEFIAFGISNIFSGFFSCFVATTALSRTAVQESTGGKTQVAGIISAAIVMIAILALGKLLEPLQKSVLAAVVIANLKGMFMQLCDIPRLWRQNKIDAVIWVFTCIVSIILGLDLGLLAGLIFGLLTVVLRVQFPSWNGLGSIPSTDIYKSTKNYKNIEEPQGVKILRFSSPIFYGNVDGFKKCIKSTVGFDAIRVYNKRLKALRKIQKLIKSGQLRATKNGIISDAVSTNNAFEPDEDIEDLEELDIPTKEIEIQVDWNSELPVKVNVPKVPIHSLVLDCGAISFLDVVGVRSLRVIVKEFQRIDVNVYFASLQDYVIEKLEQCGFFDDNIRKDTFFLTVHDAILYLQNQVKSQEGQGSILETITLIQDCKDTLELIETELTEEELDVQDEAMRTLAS
# Assay: Pendrin-mediated Cl^−/I^− exchange activity, YFP fluorescence in CHO-K1 cells
# Assay type: cell-based
# Settings: CHO-K1, 30 μM; read-out: Pendrin inhibitory activity at 30 μM (%)
# Protocol: Chinese hamster ovary (CHO)-K1 cells were maintained in a DMEM medium containing 10% fetal bovine serum (FBS), 100 units/ml penicillin and 100 100 μg/ml streptomycin. CHO-K1 cells were stably transfected with pcDNA3.1 encoding halide sensor YFP-H148Q/I152L/F46L and human wild-type (WT)-pendrin. For distribution of primary culture of human nasal cavity epithelium (HNE) cells, passage-2 cells were seeded into transwell-transparent culture inserts with a pore size of 0.45 μm (Costar Co., Cambridge, MA) at a density of 2×10^5 cells/cm^2. The cells were maintained in a 1:1 mixture of Dulbecco's modified Eagle's medium (Lonza, Walkersville, MD) and bronchial epithelial growth medium (Lonza) supplemented with the following growth factors according to the manufacturer's instructions. After immersing the cells for the first 7 days, they were exposed to the apical air interface for the remainder of the culture period. After establishment of the air-liquid interface, the cells were used between 14 and 21 days. At all stages of culture, the cells were maintained at 37° C. under 5% CO2 in an air incubator.
# CHO-K1 cells expressing human WT pendrin and YFP-F46L/H148Q/I152L were plated on a 96-well microplate at a density of 2×10^4 cells per well and cultured for 48 hours. Each well of the cell cultured 96-well plate was washed with PBS of 200 μL twice and was filled with HEPES buffer solution of 50 μL, respectively. […] After culturing at 37° C. for 10 minutes, the 96-well plate was positioned on FLUOstar Omega microplate reader (BMG Labtech, Ortenberg, Germany) for fluorescence analysis. By continuously (400 ms per point) recording fluorescence for 1 second (base line), each well was individually analyzed for pendrin-mediated I^− inflow, and then at 1 second, 50 μL of NaI-substituted HEPES buffer solution (NaI replacing NaCl) was added using a liquid injector and the YFP fluorescence was recorded for 5 seconds. The initial iodide inflow rate was determined from the initial slope of fluorescence by nonlinear regression, after injection the iodide (See FIG. 1).
# For measurement of Cl^−/I^− exchange activity, YFP fluorescence was measured in pendrin and halide sensor YFP expressing CHO-K1 cells. Each well of the cell cultured 96-well plate was washed with PBS of 200 μL twice, and was filled with HEPES buffer solution (140 mM NaCl, 5 mM KCl, 1 mM MgCl2, 1 mM CaCl2, 10 mM glucose and 10 mM HEPES (pH 7.4)), respectively. […] After culturing at 37° C. for 10 minutes, the 96-well plate was positioned on FLUOstar Omega microplate reader (BMG Labtech, Ortenberg, Germany) for fluorescence analysis.
# By continuously (400 ms per point) recording fluorescence for 1 second (base line), each well was individually analyzed for pendrin-mediated I^− inflow, and then at 1 second, 50 μL of NaI-substituted HEPES buffer solution (140 mM NaI, 5 mM KCl, 1 mM MgCl2, 1 mM CaCl2, 10 mM glucose and 10 mM HEPES (pH 7.4)) was added using a liquid injector and the YFP fluorescence was recorded for 5 seconds. The initial iodide inflow rate was determined from the initial slope of fluorescence by nonlinear regression, after injection the iodide.
row,Compound,inhibition at 30 µM [%]
1,"O=C1OC(c2ccccc2OC(F)F)=NC1=Cc1ccc(Br)s1 [F121, 4-((5-Bromothiophen-2-yl)methylene)-2-(2-(difluoromethoxy)phenyl)oxazol-5(4H)-one]",3.4
2,"O=C1OC(c2ccccc2)=NC1=Cc1cccn1Cc1ccccc1Cl [F65, 4-((1-(2-Chlorobenzyl)-1H-pyrrol-2-yl)methylene)-2-phenyloxazol-5(4H)-one]",1.7
3,"O=C1OC(c2ccc(-c3ccccc3)cc2)=NC1=Cc1cccs1 [F37, 2-([1,1′-biphenyl]-4-yl)-4-(thiophen-2-ylmethylene)oxazol-5 (4H)-one]",3.5
4,"O=C1OC(C2CCCCC2)=NC1=Cc1cccs1 [F23, 2-Cyclohexyl-4-(thiophen-2-ylmethylene)oxazol-5 (4H)-one]",2.1
5,"COc1ccc2cc(C=C3N=C(c4ccccc4)OC3=O)c(=O)[nH]c2c1 [F74, 4-((7-Methoxy-2-oxo-1,2-dihydroquinolin-3-yl)methylene)-2-phenyloxazol-5(4H)-one]",2.4
6,"CCCCOc1ccc(C2=NC(=Cc3cccs3)C(=O)O2)cc1 [F142, 2-(4-Butoxyphenyl)-4-(thiophen-2-ylmethylene)oxazol-5 (4H)-one]",2.4
7,"O=C1OC(c2ccc3c(c2)OCO3)=NC1=Cc1ccc(N2CCCCC2)s1 [F100, 2-(Benzo[d][1,3]dioxoyl-5-yl)-4-((5-(piperidin-1-yl)thiophen-2-yl)methylene)oxazol-5(4H)-one]",2.5
8,"O=C1OC(c2ccccc2)=NC1=C1C=C(c2ccccc2)SC(c2ccccc2)=C1 [F85, 4-(2,6-Diphenyl-4H-thiopyran-4-ylidene)-2-phenyloxazol-5(4H)-one]",2.9
9,"CN(C)c1ccc(C=C2N=C(c3sc4ccccc4c3Cl)OC2=O)cc1 [F59, 2-(3-Chlorobenzo[b]thiophen-2-yl)-4-(4-(dimethylamino)benzylidene)oxazol-5(4H)-one]",1.8
10,"O=C1OC(Cc2ccc(-c3ccccc3)cc2)=NC1=Cc1cccs1 [F28, 2-([1,1′-biphenyl]-4-ylmethyl)-4-(thiophen-2-ylmethylene)oxazol-5 (4H)-one]",2.2
11,"CCCCc1ccc(C2=NC(=Cc3ccc[nH]3)C(=O)O2)cc1 [F26, 4-((1H-pyrrol-2-yl)methylene)-2-(4-butylphenyl)oxazol-5(4H)-one]",69.9
12,"CC(C)c1ccc(C2=NC(=Cc3ccc[nH]3)C(=O)O2)cc1 [F12, 4-((1H-pyrrol-2-yl)methylene)-2-(4-isopropylphenyl)oxazol-5(4H)-one]",100
13,"CCOc1ccc2nc(Sc3ccccc3)c(C=C3N=C(c4ccccc4)OC3=O)cc2c1 [F70, 4-((6-Ethoxy-2-(phenylthio)quinolin-3-yl)methylene)-2-phenyloxazol-5(4H)-one]",3.1
14,"O=C1OC(c2ccc3c(c2)CCC3)=NC1=Cc1cccs1 [F29, 2-(2,3-dihydro-1H-indene-5-yl)-4-(thiophen-2-ylmethylene)oxazol-5 (4H)-one]",3.3
15,"COc1cc(C2=NC(=Cc3cccs3)C(=O)O2)cc(OC)c1OC [F94, 4-(Thiophen-2-ylmethylene)-2-(3,4,5-trimethoxyphenyl)oxazol-5(4H)-one]",1.9
16,"Cc1cc(C)cc(C2=NC(=Cc3cccs3)C(=O)O2)c1 [F150, 2-(3,5-Dimethylphenyl)-4-(thiophen-2-ylmethylene)oxazol-5(4H)-one]",6.9
17,"CC(C)Oc1ccc(C2=NC(=Cc3cnn(Cc4ccccc4)c3)C(=O)O2)cc1 [F130, 4-((1-Benzyl-1H-pyrazol-4-yl)methylene)-2-(4-isopropoxyphenyl)oxazol-5 (4H)-one]",2.7

# Other lines, results leading:
row,inhibition at 30 µM [%],Compound
1,33.1,"CC(C)Cc1ccc(C2=NC(=Cc3cccs3)C(=O)O2)cc1 [F14, 2-(4-Isobutylphenyl)-4-(thiophen-2-ylmethylene)oxazol-5 (4H)-one]"
2,4.6,"O=C1OC(c2ccc(Br)cc2)=NC1=Cc1cccs1 [F45, 2-(4-Bromophenyl)-4-(thiophen-2-ylmethylene)oxazol-5 (4H)-one]"
3,4.3,"Cc1[nH]c2ccccc2c1C=C1N=C(c2ccc(C(C)(C)C)cc2)OC1=O [F3, 2-(4-(tert-butyl)phenyl)-4-((2-methyl-1H-indol-3-yl1)methylene)oxazol-5(4H)-one]"
4,38.2,"CCCc1ccc(C(=O)NC(=Cc2ccco2)C(=O)O)cc1 [G34, 3-(Furan-2-yl)-2-(4-propylbenzamido)acrylate]"
5,87.2,"CC(C)(C)NS(=O)(=O)c1ccc(C2=NC(=Cc3cccs3)C(=O)O2)cc1 [F35, N-(tert-butyl)-4-(5-oxo-4-(thiophen-2-ylmethylene)-4,5-dihydrooxazol-2-yl)benzene sulfonamide]"
6,2.8,"CC(=O)n1cc(C=C2N=C(c3ccc(Br)cc3)OC2=O)c2ccccc21 [F72, 4-((1-Acetyl-1H-indol-3-yl)methylene)-2-(4-bromophenyl)oxazol-5(4H)-one]"
7,5.4,"CC(C)(C)c1ccc(C(=O)NC(=Cc2cc3ccccc3[nH]2)C(=O)O)cc1 [G33, 2-(4-(tert-butyl)benzamido)-3-(1H-indol-2-yl)acrylate]"
8,2.3,"CC(=O)Nc1ccc(C=C2N=C(c3ccc(OC(C)C)cc3)OC2=O)cc1 [F129, N-(4-((2-(4-isopropoxyphenyl)-5-oxooxazol-4(5H)-ylidene)methyl)phenyl)acetamide]"
9,4.7,"CC(C)(C)OC(=O)C(=Cc1ccc[nH]1)NC(=O)c1ccc(C(C)(C)C)cc1 [G6, tert-butyl 2-(4-(tert-butyl)benzamido)-3-(1H-pyrrol-2-yl)acrylate]"
10,2.4,"O=C1OC(c2ccc(C(F)(F)F)cc2)=NC1=Cc1ccco1 [F48, 4-(Furan-2-ylmethylene)-2-(4-(trifluoromethyl)phenyl)oxazol-5(4H)-one]"
11,92.6,"CC(C)(C)c1ccc(C2=NC(=Cc3ccco3)C(=O)O2)cc1 [F38, 2-(4-(tert-butyl)phenyl)-4-(furan-2-ylmethylene)oxazol-5 (4H)-one]"
12,22.4,"CC(C)(C)c1ccc(C(=O)NC(=Cc2cccn2-c2ccccc2)C(=O)O)cc1 [G13, 2-(4-(tert-butyl)benzamido)-3-(1-phenyl-1H-pyrrol-2-yl)acrylate]"
13,1.1,"COC(=O)C(=Cc1ccco1)NC(=O)c1ccc(C(F)(F)F)cc1 [G17, Methyl 3-(furan-2-yl)-2-(4-(trifluoromethyl)benzamido)acrylate]"
14,2.9,"CC(=O)Nc1ccc(C2=NC(=Cc3ccc(Br)s3)C(=O)O2)cc1 [F107, N-(4-(4-((5-bromothiophen-2-yl)methylene)-5-oxo-4,5-dihydrooxazol-2-yl)phenyl)acetamide]"

# Same assay, conditions: compounds showing pendrin inhibitory activity of 50% or more at 30 μM; read-out: IC50
row,Compound,IC50 [µM]
1,"CCCCc1ccc(C2=NC(=Cc3ccc[nH]3)C(=O)O2)cc1 [F26, 4-((1H-pyrrol-2-yl)methylene)-2-(4-butylphenyl)oxazol-5(4H)-one]",12.8 ± 1.55
2,"CC(C)c1ccc(C2=NC(=Cc3ccc[nH]3)C(=O)O2)cc1 [F12, 4-((1H-pyrrol-2-yl)methylene)-2-(4-isopropylphenyl)oxazol-5(4H)-one]",1 ± 0.15

# Results, then the molecule that gave them:
row,IC50 [µM],Compound
1,11.6 ± 1.25,"CC(C)(C)NS(=O)(=O)c1ccc(C2=NC(=Cc3cccs3)C(=O)O2)cc1 [F35, N-(tert-butyl)-4-(5-oxo-4-(thiophen-2-ylmethylene)-4,5-dihydrooxazol-2-yl)benzene sulfonamide]"
2,3.5 ± 0.27,"CC(C)(C)c1ccc(C2=NC(=Cc3ccco3)C(=O)O2)cc1 [F38, 2-(4-(tert-butyl)phenyl)-4-(furan-2-ylmethylene)oxazol-5 (4H)-one]"

# Reference: patent US12691101B2, “Compound and method for preventing or treating of respiratory diseases comprising the same as an active ingredient” (YONSEI UNIVERSITY, UNIVERSITY - INDUSTRY FOUNDATION (UIF), priority 2019, dated 2026)
